Measured values published in ChEMBL document CHEMBL6177948, “Discovery of potential Leonurine-based therapeutic lead MJ210 attenuates Parkinson's disease pathogenesis via NF-κB and MAPK pathways: Mechanistic insights from in vitro and in vivo rotenone models” (Eur J Med Chem, 2025).
Active and inactive are the calls of the source.

What was measured:
[1] = tested on: SH-SY5Y; assay: (§1) Neuroprotective activity against rotenone-induced mitochondrial ROS generation in human SH-SY5Y cells assessed as decrease in ROS level at 5 uM preincubated with compound for 24 hrs followed by rotenone addition and measured after 24 hrs by Mito Tracker staining based fluorescence microscopic analysis; format: functional, cell-based; conditions: time 48.0 hrs
[2] = tested on: SH-SY5Y; assay: Neuroprotective activity against rotenone-induced cytotoxicity in human SH-SY5Y cells assessed as increase in green fluorescence at 5 uM by Calcein-AM and PI staining based fluorescence microscopy analysis; format: functional, cell-based
[3] = tested on: SH-SY5Y; assay: Anti-inflammatory activity in rotenone-induced human SH-SY5Y cells assessed as reduction in IL-6 expression by Western blotting analysis; format: functional, cell-based
[4] = tested on: SH-SY5Y; assay: Neuroprotective activity against rotenone-induced ROS formation in human SH-SY5Y cells assessed as reduction in ROS level by measuring fluorescence intensity at 5 uM preincubated with compound for 24 hrs followed by rotenone addition and measured after 24 hrs by CellRox reagent based fluorescence microscopic analysis; format: functional, cell-based; conditions: time 48.0 hrs
[5] = tested on: SH-SY5Y; assay: as §1, with “MitoSOX red” for “Mito Tracker”; format: functional, cell-based; conditions: time 48.0 hrs
[6] = tested on: SH-SY5Y; assay: as §1, with “morphological changes” for “ROS generation”, “intact tubular” for “decrease in ROS level”; format: functional, cell-based; conditions: time 48.0 hrs
[7] = tested on: SH-SY5Y; assay: Reversal of rotenone-induced mitochondrial membrane depolarization in human SH-SY5Y cells assessed as decrease in JC-10 monomers by measuring green fluorescence at 5 uM preincubated with compound for 24 hrs followed by rotenone addition and measured after 24 hrs by JC-10 based fluorescence microscopic analysis; format: functional, cell-based
[8] = tested on: SH-SY5Y; assay: Anti-inflammatory activity against rotenone-induced human SH-SY5Y cells assessed as reduction in TNF-alpha mRNA expression level by RT-qPCR analysis; format: functional, cell-based
[9] = tested on: SH-SY5Y; assay: Anti-inflammatory activity against rotenone-induced human SH-SY5Y cells assessed as reduction in IL-6 mRNA expression level by RT-qPCR analysis; format: functional, cell-based
[10] = tested on: SH-SY5Y; assay: Inhibition of MAPK signaling pathway in rotenone-induced human SH-SY5Y cells assessed as reduction in P-38 phosphorylation level by ELISA; format: cell-based
[11] = Stability in human serum assessed as compound remaining measured after 96 hrs by RP-HPLC analysis relative to control; format: ADME, cell-free; conditions: read-out: Stability
[12] = tested on: Rattus norvegicus; assay: Anti-parkinson activity in rotenone-induced male Wistar rat model assessed as increase DAT expression in substantia nigra at 5 mg/kg, ip pretreated with compound every alternative days followed by rotenone addition and measured after 42 days by Western blotting analysis; format: functional, organism-based; conditions: time 42.0 day
[13] = tested on: Rattus norvegicus; assay: Anti-parkinson activity in rotenone-induced neurodegeneration in male Wistar rat model assessed as minimal neuronal loss in cortex at 5 mg/kg, ip pretreated with compound every alternative days followed by rotenone addition and measured after 42 days by H and E staining based analysis; format: functional, organism-based; conditions: time 42.0 day
[14] = tested on: Rattus norvegicus; assay: (§2) Anti-parkinson activity in rotenone-induced neurodegeneration in male Wistar rat model assessed as decrease neuronal damage in cortex at 5 mg/kg, ip pretreated with compound every alternative days followed by rotenone addition and measured after 42 days by Nissl staining based analysis; format: functional, organism-based; conditions: time 42.0 day
[15] = tested on: Rattus norvegicus; assay: Anti-parkinson activity in rotenone-induced neurodegeneration in male Wistar rat model assessed as decrease neuronal damage in striatum at 5 mg/kg, ip pretreated with compound every alternative days followed by rotenone addition and measured after 42 days by Nissl staining based analysis; format: functional, organism-based; conditions: time 42.0 day
[16] = tested on: Rattus norvegicus; assay: as §2, with “reduction” for “decrease neuronal damage”, “pyknotic neurons in substantia nigra” for “cortex”; format: functional, organism-based; conditions: time 42.0 day
[17] = tested on: Rattus norvegicus; assay: (§3) In vivo inhibition of MAPK signaling pathway in rotenone-induced parkinson disease male Wistar rat model assessed as reduction in P-38 phosphorylation level in substantia nigra at 5 mg/kg, ip pretreated with compound every alternative days followed by rotenone addition and measured after 42 days by Western blotting analysis; format: functional, organism-based; conditions: time 42.0 day
[18] = tested on: Rattus norvegicus; assay: as §3, with “striatum” for “substantia nigra”; format: functional, organism-based; conditions: time 42.0 day
[19] = tested on: Rattus norvegicus; assay: as §3, with “JNK” for “P-38”, “striatum” for “substantia nigra”; format: functional, organism-based; conditions: time 42.0 day
[20] = Toxicity in male Wistar rat assessed as change in cellular structure of spleen at 1 to 10 mg/kg by H and E staining based analysis; format: organism-based; conditions: in vivo, dose 1-10 mg/kg
[21] = Toxicity in male Wistar rat assessed as change in heart morphology at 1 to 10 mg/kg by H and E staining based analysis; format: organism-based; conditions: in vivo, dose 1-10 mg/kg
[22] = Toxicity in male Wistar rat assessed as change in liver morphology at 1 to 10 mg/kg by H and E staining based analysis; format: organism-based; conditions: in vivo, dose 1-10 mg/kg
[23] = Toxicity in male Wistar rat assessed as change in spleen morphology at 1 to 10 mg/kg by H and E staining based analysis; format: organism-based; conditions: in vivo, dose 1-10 mg/kg
[24] = Toxicity in male Wistar rat assessed as change in kidney morphology at 1 to 10 mg/kg by H and E staining based analysis; format: organism-based; conditions: in vivo, dose 1-10 mg/kg
[25] = Drug excretion in male Wistar rat brain at 50 mg/kg, ip measured after 4.25 hrs; format: ADME, organism-based; conditions: in vivo

COc1cc(CCC(=O)N2CCCCC2)cc(OC)c1OC(=O)c1ccccn1
Active: Drug excretion [25]
Non-toxic: Activity [20] | Activity [21] | Activity [22] | Activity [23] | Activity [24]
86%: remaining at 96 h [11]
active: Activity [1] | Activity [2] | Activity [3] | Activity [4] | Activity [5] | Activity [6] | Activity [7] | Activity [8] | Activity [9] | inhibition [10] | Activity [12] | Activity [13] | Activity [14] | Activity [15] | Activity [16] | inhibition [17] | inhibition [18] | inhibition [19]
